According to patent US20240254119A1 (THIRD HARMONIC BIO, INC., priority 2022, published 2024):
Converted amounts (≈) assume the structure as drawn.

How the values were obtained:
wtKIT = target: T1, wtKIT (Homo sapiens, UniProt P10721); assay: Caliper biochemical assay, wtKIT; settings: Table 6, read-out: KIT Biochemical IC50 avg
T1 construct: 1888289AM in the reaction mixtures
In short: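 Enzyme (5.0 nM wtKIT), 1 μM FAM-labelled peptide, 400 μM ATP and 10 mM MnCl2 in HEPES pH 7.5 with 1% DMSO, incubated 3 h at 25° C. EDTA quench; substrate and phosphoproduct separated by microfluidic electrophoresis and quantified by fluorescence.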

CSF-1R = target: T2, CSF-1R (Homo sapiens, UniProt P07333); assay: Caliper biochemical assay, CSF-1R; settings: Table 6
T2 construct: purchased Invitrogen PV3249 (lot 662393N)
In short: (§1)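 Kinase, FAM-labelled peptide substrate, ATP and Mn^2+ incubated with compound for 3 h at 25° C, then quenched with EDTA buffer. Substrate and phosphorylated product separated by microfluidic electrophoresis and quantified by fluorescence intensity; no-enzyme wells define 100% inhibition.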

PDGFRα = target: T3, PDGFRα (Homo sapiens, UniProt P16234); assay: Caliper biochemical assay, PDGFRα; settings: Table 6
T3 construct: purchased Millipore 14-467 (lot 26321_ACTI)
In short: as §1

[1] = target: T4, BCRP (BCRP-MDCKII monolayer) (Homo sapiens, UniProt Q9UNQ0); assay: MDCKII-BCRP bidirectional transport assay; type: in vitro ADME; settings: for MDCK-BCRP: Papp A-B: apical to basolateral
T4 construct: host or cells: MDCKII (canine kidney) cells
T4 sequence (Q9UNQ0 1-655): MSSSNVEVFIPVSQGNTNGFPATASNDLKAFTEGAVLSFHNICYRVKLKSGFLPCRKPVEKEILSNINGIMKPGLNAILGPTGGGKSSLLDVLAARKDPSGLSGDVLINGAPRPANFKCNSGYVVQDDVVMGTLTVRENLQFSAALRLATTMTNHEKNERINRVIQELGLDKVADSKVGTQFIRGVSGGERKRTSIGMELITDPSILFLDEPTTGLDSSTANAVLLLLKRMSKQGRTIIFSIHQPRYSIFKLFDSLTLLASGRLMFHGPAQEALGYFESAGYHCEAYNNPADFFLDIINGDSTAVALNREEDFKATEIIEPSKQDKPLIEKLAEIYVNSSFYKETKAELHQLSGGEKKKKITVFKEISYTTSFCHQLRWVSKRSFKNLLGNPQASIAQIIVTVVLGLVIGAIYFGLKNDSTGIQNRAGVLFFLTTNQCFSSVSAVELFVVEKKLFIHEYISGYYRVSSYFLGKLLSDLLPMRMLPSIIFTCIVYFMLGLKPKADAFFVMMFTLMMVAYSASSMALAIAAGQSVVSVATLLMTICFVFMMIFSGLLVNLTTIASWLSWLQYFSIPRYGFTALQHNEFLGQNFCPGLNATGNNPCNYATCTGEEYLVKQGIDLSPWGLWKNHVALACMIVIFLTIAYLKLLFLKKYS
In short: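 Bidirectional A→B and B→A transport across PreadyPort BCRP-MDCKII monolayers (days 12–15) was run in duplicate for 120 min at 37° C, 5% CO2 after a 15 min preincubation. Compound levels were measured by LC-MS/MS. Papp and recovery were calculated, with efflux ratio indicating transporter engagement.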

Kinetic solubility assay = type: physicochemical; settings: for Solubility (μM): kinetic solubility, 50 mM PB (pH 7.4), shaken 24 hours at RT
In short: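 Test compounds from 10 mM DMSO stock were diluted in 50 mM phosphate buffer, pH 7.4, and shaken for 24 h at RT. After PTFE filtration and centrifugation, filtrate concentration was quantified by UPLC-UV/HPLC-UV against a standard curve.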

T3 sequence (P16234 24-1089): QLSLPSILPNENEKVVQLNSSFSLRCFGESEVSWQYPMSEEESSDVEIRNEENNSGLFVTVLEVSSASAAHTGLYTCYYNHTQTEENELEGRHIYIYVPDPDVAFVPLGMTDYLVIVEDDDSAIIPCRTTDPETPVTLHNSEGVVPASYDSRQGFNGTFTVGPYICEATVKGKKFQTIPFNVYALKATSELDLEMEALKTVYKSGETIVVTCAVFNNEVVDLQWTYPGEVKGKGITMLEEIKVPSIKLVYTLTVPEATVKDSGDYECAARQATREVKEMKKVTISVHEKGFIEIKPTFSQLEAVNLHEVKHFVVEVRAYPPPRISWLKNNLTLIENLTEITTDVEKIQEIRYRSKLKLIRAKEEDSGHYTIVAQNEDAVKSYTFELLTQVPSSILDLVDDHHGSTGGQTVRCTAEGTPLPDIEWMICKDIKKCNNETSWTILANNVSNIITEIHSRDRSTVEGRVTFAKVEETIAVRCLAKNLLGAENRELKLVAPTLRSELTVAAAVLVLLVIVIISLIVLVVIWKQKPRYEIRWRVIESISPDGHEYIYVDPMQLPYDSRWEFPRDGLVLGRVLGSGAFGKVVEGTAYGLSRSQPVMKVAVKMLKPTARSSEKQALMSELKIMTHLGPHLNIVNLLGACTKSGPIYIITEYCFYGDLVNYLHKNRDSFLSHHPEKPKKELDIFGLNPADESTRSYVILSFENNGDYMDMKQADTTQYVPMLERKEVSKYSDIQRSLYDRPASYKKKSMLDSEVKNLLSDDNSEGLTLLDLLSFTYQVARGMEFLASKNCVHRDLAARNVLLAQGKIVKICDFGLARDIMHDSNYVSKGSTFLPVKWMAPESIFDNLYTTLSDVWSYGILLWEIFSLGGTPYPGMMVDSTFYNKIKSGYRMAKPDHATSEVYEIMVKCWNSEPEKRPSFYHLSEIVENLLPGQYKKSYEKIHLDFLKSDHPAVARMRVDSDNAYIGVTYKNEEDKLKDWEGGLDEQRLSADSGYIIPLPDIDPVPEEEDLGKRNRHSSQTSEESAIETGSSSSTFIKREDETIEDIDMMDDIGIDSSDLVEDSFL
T1 sequence (P10721 26-976): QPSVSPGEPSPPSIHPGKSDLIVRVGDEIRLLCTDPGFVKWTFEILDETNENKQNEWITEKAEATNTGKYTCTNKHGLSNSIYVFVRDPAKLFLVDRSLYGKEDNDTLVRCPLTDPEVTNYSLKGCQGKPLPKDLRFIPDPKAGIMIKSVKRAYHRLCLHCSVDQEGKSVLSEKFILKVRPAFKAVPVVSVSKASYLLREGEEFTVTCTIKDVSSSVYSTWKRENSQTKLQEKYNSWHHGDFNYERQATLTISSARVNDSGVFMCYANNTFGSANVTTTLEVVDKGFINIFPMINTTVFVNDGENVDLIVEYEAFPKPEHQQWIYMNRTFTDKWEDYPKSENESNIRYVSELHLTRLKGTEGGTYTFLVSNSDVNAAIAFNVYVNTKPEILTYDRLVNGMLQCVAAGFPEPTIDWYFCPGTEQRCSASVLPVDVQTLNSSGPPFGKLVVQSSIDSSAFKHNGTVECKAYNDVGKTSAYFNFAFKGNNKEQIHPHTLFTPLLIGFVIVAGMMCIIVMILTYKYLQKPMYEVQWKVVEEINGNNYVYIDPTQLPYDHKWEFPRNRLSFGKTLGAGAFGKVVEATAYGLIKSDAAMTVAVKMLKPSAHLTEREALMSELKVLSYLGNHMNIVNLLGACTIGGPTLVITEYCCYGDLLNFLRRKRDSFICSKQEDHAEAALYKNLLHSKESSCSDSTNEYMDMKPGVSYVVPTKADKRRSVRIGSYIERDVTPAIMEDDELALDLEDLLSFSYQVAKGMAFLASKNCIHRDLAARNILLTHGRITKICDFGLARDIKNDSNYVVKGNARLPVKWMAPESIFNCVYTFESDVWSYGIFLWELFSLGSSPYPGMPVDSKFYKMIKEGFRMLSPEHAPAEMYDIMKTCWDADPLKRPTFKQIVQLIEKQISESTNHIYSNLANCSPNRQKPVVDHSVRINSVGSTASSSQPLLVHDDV
T2 sequence (P07333 20-972): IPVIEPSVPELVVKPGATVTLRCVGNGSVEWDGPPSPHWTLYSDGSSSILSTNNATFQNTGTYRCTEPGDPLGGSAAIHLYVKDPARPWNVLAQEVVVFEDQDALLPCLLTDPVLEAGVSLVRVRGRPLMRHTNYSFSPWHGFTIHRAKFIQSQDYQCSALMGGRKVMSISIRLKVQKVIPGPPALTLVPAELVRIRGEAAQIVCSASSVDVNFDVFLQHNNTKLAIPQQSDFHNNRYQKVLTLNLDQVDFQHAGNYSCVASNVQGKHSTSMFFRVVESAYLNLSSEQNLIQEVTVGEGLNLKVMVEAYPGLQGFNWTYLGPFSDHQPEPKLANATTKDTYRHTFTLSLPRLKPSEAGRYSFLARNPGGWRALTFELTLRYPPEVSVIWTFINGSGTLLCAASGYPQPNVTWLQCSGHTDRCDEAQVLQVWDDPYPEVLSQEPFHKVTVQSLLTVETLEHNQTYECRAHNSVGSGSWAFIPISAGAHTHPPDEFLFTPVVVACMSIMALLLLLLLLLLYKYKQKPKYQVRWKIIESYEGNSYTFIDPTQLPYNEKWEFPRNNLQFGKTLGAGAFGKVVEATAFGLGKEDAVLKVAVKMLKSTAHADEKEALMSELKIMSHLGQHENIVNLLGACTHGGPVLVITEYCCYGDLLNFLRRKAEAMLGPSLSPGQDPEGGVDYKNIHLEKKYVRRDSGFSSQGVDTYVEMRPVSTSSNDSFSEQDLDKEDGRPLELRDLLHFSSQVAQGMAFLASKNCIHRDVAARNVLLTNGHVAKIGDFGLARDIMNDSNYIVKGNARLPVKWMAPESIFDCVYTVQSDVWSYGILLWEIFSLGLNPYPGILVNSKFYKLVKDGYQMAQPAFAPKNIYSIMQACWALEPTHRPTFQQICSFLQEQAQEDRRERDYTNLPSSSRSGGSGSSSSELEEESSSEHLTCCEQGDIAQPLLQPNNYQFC

Cc1ccc(-c2noc(CCO)n2)cc1NC(=O)c1cnc2ccccn12 [Compound I-306]
IC50 (wtKIT): ≤ 50 nM | IC50 (CSF-1R): 50 to 500 nM | IC50 (PDGFRα): 5000 to 30000 nM | MDCK-BCRP: Efflux Ratio [1]: 23.2 | MDCK-BCRP: Papp A-B [1]: 1.46 10^−6 cm/s | Solubility (μM) (Kinetic solubility assay): * (a solubility greater than 50 μM)

Cc1ccc(-c2noc([C@H]3C[C@@H]3F)n2)cc1NC(=O)c1cnc2cc(OC(C)C)ccn12 [Compound I-88]
IC50 (wtKIT): ≤ 50 nM | IC50 (CSF-1R): ≤ 50 nM | IC50 (PDGFRα): 50 to 500 nM | MDCK-BCRP: Efflux Ratio [1]: 0.89 | MDCK-BCRP: Papp A-B [1]: 29 10^−6 cm/s | Solubility (μM) (Kinetic solubility assay): **** (a solubility less than or equal to 2 μM)

CCCNc1ccn2c(C(=O)Nc3cc(-c4noc([C@H]5C[C@@H]5F)n4)ccc3C)cnc2c1 [Compound I-304]
IC50 (wtKIT): ≤ 50 nM | IC50 (CSF-1R): ≤ 50 nM | IC50 (PDGFRα): ≤ 50 nM | MDCK-BCRP: Efflux Ratio [1]: 3.43 | MDCK-BCRP: Papp A-B [1]: 5.05 10^−6 cm/s | Solubility (μM) (Kinetic solubility assay): **** (a solubility less than or equal to 2 μM)

Cc1ccc(-c2noc(CC(O)C(F)F)n2)cc1NC(=O)c1cnc2ccccn12 (stereo not shown) [Compound I-114]
IC50 (wtKIT): ≤ 50 nM | IC50 (CSF-1R): 50 to 500 nM | IC50 (PDGFRα): 500 to 5000 nM | MDCK-BCRP: Efflux Ratio [1]: 8.07 | MDCK-BCRP: Papp A-B [1]: 3.03 10^−6 cm/s | Solubility (μM) (Kinetic solubility assay): **** (a solubility less than or equal to 2 μM)

Cc1ccc(-c2noc(C3CCS(=O)(=O)N3)n2)cc1NC(=O)c1cnc2ccccn12 (racemic) [Compound I-330]
IC50 (wtKIT): ≤ 50 nM | IC50 (CSF-1R): ≤ 50 nM | IC50 (PDGFRα): 50 to 500 nM | MDCK-BCRP: Efflux Ratio [1]: 24.9 | MDCK-BCRP: Papp A-B [1]: 1.28 10^−6 cm/s | Solubility (μM) (Kinetic solubility assay): ** (a solubility greater than 10 μM and less than or equal to 50 μM)

Cc1ccc(-c2noc(CC(C)(C)O)n2)cc1NC(=O)c1cnc2ccccn12 [Compound I-336]
IC50 (wtKIT): 50 to 500 nM | MDCK-BCRP: Efflux Ratio [1]: 19.9 | MDCK-BCRP: Papp A-B [1]: 1.92 10^−6 cm/s | Solubility (μM) (Kinetic solubility assay): * (a solubility greater than 50 μM)

Cc1ccc(-c2noc(CC(C)O)n2)cc1NC(=O)c1cnc2ccccn12 (racemic) [Compound I-363]
IC50 (wtKIT): ≤ 50 nM | IC50 (CSF-1R): 50 to 500 nM | IC50 (PDGFRα): 500 to 5000 nM | MDCK-BCRP: Efflux Ratio [1]: 5.58 | MDCK-BCRP: Papp A-B [1]: 3.24 10^−6 cm/s | Solubility (μM) (Kinetic solubility assay): ** (a solubility greater than 10 μM and less than or equal to 50 μM)

Cc1ccc(-c2noc([C@@H](C)O)n2)cc1NC(=O)c1cnc2ccccn12 [Compound I-270]
IC50 (wtKIT): 50 to 500 nM | IC50 (CSF-1R): ≤ 50 nM | IC50 (PDGFRα): 5000 to 30000 nM | MDCK-BCRP: Efflux Ratio [1]: 20.8 | MDCK-BCRP: Papp A-B [1]: 1.3 10^−6 cm/s | Solubility (μM) (Kinetic solubility assay): * (a solubility greater than 50 μM)

Cc1ccc(-c2noc(C3CCC3F)n2)cc1NC(=O)c1cnc2ccccn12 (racemic) [Compound I-377]
IC50 (wtKIT): ≤ 50 nM | IC50 (CSF-1R): ≤ 50 nM | IC50 (PDGFRα): 500 to 5000 nM | MDCK-BCRP: Efflux Ratio [1]: 0.98 | MDCK-BCRP: Papp A-B [1]: 7.81 10^−6 cm/s | Solubility (μM) (Kinetic solubility assay): *** (a solubility greater than 2 μM and less than or equal to 10 μM)

Cc1ccc(-c2noc(C3(O)CC(F)(F)C3)n2)cc1NC(=O)c1cnc2ccccn12 [Compound I-380]
IC50 (wtKIT): ≤ 50 nM | MDCK-BCRP: Efflux Ratio [1]: 14.2 | MDCK-BCRP: Papp A-B [1]: 1.21 10^−6 cm/s | Solubility (μM) (Kinetic solubility assay): **** (a solubility less than or equal to 2 μM)

Cc1ccc(-c2noc([C@H]3C[C@@H]3F)n2)cc1NC(=O)c1cnc2ccc(C#N)cn12 [Compound I-384]
IC50 (wtKIT): ≤ 50 nM | IC50 (CSF-1R): ≤ 50 nM | IC50 (PDGFRα): 5000 to 30000 nM | MDCK-BCRP: Efflux Ratio [1]: 12.9 | MDCK-BCRP: Papp A-B [1]: 0.59 10^−6 cm/s | Solubility (μM) (Kinetic solubility assay): **** (a solubility less than or equal to 2 μM)

Cc1ccc(-c2noc(C3CC(F)C3)n2)cc1NC(=O)c1cnc2ccccn12 (stereo not shown) [Compound I-381]
IC50 (wtKIT): ≤ 50 nM | IC50 (CSF-1R): ≤ 50 nM | IC50 (PDGFRα): 50 to 500 nM | MDCK-BCRP: Efflux Ratio [1]: 1.25 | MDCK-BCRP: Papp A-B [1]: 10.1 10^−6 cm/s | Solubility (μM) (Kinetic solubility assay): **** (a solubility less than or equal to 2 μM)

COC(=O)N1CC(c2nc(-c3ccc(C(F)F)c(NC(=O)c4cnc5ccccn45)c3)no2)C1 [Compound I-225]
IC50 (wtKIT): ≤ 50 nM | IC50 (CSF-1R): 50 to 500 nM | IC50 (PDGFRα): 5000 to 30000 nM | MDCK-BCRP: Efflux Ratio [1]: 3.27 | MDCK-BCRP: Papp A-B [1]: 11.2 10^−6 cm/s | Solubility (μM) (Kinetic solubility assay): ** (a solubility greater than 10 μM and less than or equal to 50 μM)

COc1ccc2ncc(C(=O)Nc3cc(-c4noc(C[C@@H](C)O)n4)ccc3C)n2c1 [Compound I-119]
Solubility (μM) (Kinetic solubility assay): **** (a solubility less than or equal to 2 μM)

Cc1ccc(-c2noc(C3CCS(=O)(=O)C3)n2)cc1NC(=O)c1cnc2ccccn12 (racemic) [Compound I-389]
IC50 (wtKIT): 50 to 500 nM | MDCK-BCRP: Efflux Ratio [1]: 54.3 | MDCK-BCRP: Papp A-B [1]: 0.87 10^−6 cm/s | Solubility (μM) (Kinetic solubility assay): ** (a solubility greater than 10 μM and less than or equal to 50 μM)

COc1ccn2c(C(=O)Nc3cc(-c4noc(CC5CC(F)(F)C5)n4)ccc3C)cnc2c1 [Compound I-91]
MDCK-BCRP: Efflux Ratio [1]: 1.76 | MDCK-BCRP: Papp A-B [1]: 1.11 10^−6 cm/s | Solubility (μM) (Kinetic solubility assay): **** (a solubility less than or equal to 2 μM)

COc1ccn2c(C(=O)Nc3cc(-c4noc(C[C@H](C)O)n4)ccc3C)cnc2c1 [Compound I-94]
MDCK-BCRP: Efflux Ratio [1]: 8.04 | MDCK-BCRP: Papp A-B [1]: 5.19 10^−6 cm/s | Solubility (μM) (Kinetic solubility assay): **** (a solubility less than or equal to 2 μM)

Cc1ccc(-c2noc(CC(O)C(F)F)n2)cc1NC(=O)c1cnc2ccccn12 (stereo not shown) [Compound I-122]
MDCK-BCRP: Efflux Ratio [1]: 29.4 | MDCK-BCRP: Papp A-B [1]: 1.63 10^−6 cm/s | Solubility (μM) (Kinetic solubility assay): **** (a solubility less than or equal to 2 μM)

COCCOCc1ccn2c(C(=O)Nc3cc(-c4noc([C@H]5C[C@@H]5F)n4)ccc3C)cnc2c1 [Compound I-84]
MDCK-BCRP: Efflux Ratio [1]: 2.28 | MDCK-BCRP: Papp A-B [1]: 20.7 10^−6 cm/s | Solubility (μM) (Kinetic solubility assay): ** (a solubility greater than 10 μM and less than or equal to 50 μM)

COc1ccn2c(C(=O)Nc3cc(-c4noc(C5CC(F)(F)C5)n4)ccc3C)cnc2c1 [Compound I-96]
MDCK-BCRP: Efflux Ratio [1]: 1.44 | MDCK-BCRP: Papp A-B [1]: 8.58 10^−6 cm/s | Solubility (μM) (Kinetic solubility assay): **** (a solubility less than or equal to 2 μM)

Cc1ccc(-c2cnc(N3CC(F)(F)C3)o2)cc1NC(=O)c1cnc2ccccn12 [Compound I-213]
IC50 (wtKIT): ≤ 50 nM | MDCK-BCRP: Efflux Ratio [1]: 1.42 | MDCK-BCRP: Papp A-B [1]: 20.6 10^−6 cm/s | Solubility (μM) (Kinetic solubility assay): **** (a solubility less than or equal to 2 μM)

Cc1ccc(-c2noc([C@H]3C[C@@H]3F)n2)cc1NC(=O)c1cnc2cc(OC(F)(F)F)ccn12 [Compound I-87]
MDCK-BCRP: Efflux Ratio [1]: 0.71 | MDCK-BCRP: Papp A-B [1]: 30.4 10^−6 cm/s | Solubility (μM) (Kinetic solubility assay): **** (a solubility less than or equal to 2 μM)

Cc1ccc(-c2noc([C@H]3C[C@@H]3F)n2)cc1NC(=O)c1cnc2cc(COCC(C)(C)O)ccn12 [Compound I-71, N-[5-[5-[(1R,2S)-2-fluorocyclopropyl]-1,2,4-oxadiazol-3-yl]-2-methyl-phenyl]-7-[(2-hydroxy-2-methyl-propoxy)methyl]imidazo[1,2-a]pyridine-3-carboxamide]
IC50 (wtKIT): ≤ 50 nM | IC50 (CSF-1R): ≤ 50 nM | IC50 (PDGFRα): 500 to 5000 nM | solubility at 24 h (Kinetic solubility assay; phosphate buffer, pH 7.4, aqueous buffer, kinetic from dmso stock): 10 to 50 µM (≈ 4.8 to 24 µg/mL)

COc1ccn2c(C(=O)Nc3cc(-c4noc(CC(O)C(F)F)n4)ccc3C)cnc2c1 (single isomer, unassigned) [Compound I-76]
Solubility (μM) (Kinetic solubility assay): **** (a solubility less than or equal to 2 μM)

Cc1ccc(-c2noc([C@H]3C[C@@H]3F)n2)cc1NC(=O)c1cnn2ccccc12 [Compound I-109]
MDCK-BCRP: Efflux Ratio [1]: 1.12 | MDCK-BCRP: Papp A-B [1]: 88.7 10^−6 cm/s | Solubility (μM) (Kinetic solubility assay): **** (a solubility less than or equal to 2 μM)

CCOc1ccn2c(C(=O)Nc3cc(-c4noc([C@H]5C[C@@H]5F)n4)ccc3C)cnc2c1 [Compound I-93]
MDCK-BCRP: Efflux Ratio [1]: 1.16 | MDCK-BCRP: Papp A-B [1]: 21 10^−6 cm/s | Solubility (μM) (Kinetic solubility assay): **** (a solubility less than or equal to 2 μM)
